Where a SMILES comes first, the peptide text is derived from it. The star is where a group is joined. NH(4-Me-phenyl) = Cc1ccc(N*)cc1; AMC = Cc1cc(=O)oc2cc(N*)ccc12; Cbz = O=C(OCc1ccccc1)*; X1 = Cc1ccc(S*)cc1; X2 = Cc1ccc(O*)cc1

In one data set the target is T1, hGzmA (Homo sapiens, UniProt P12544).
T1 construct: in the absence or presence of active recombinant hGzmA
T1 sequence (P12544 29-262): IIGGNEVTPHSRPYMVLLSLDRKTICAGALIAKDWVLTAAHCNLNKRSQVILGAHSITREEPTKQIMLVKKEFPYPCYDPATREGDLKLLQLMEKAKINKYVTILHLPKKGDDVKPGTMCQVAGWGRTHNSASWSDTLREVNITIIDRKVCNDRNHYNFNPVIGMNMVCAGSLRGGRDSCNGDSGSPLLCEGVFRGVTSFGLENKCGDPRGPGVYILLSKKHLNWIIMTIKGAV
Briefly: Inhibition by 3,4-dichloroisocoumarin of the fluorescence of compound 9 with hGzmA. Conditions: 3,4-dichloroisocoumarin 100 μM, compound 9 20 μM, hGzmA 20 nM, Tris buffer (pH 8). The class given is biochemical.

Data set [1] concerns active GzmA secreted by NK-92 cells. Kind of data set: Detection of active GzmA in supernatants of stimulated NK-92 cells. The class given is cell-based, human. Conditions: supernatants of stimulated NK-92 cells + compound 9. The text has this: Encouraged by the high reactivity of compound 9, we evaluated its potential application to detect active GzmA secreted by immune cells. NK cell‐based therapies are regarded as potential anticancer treatments due to their ability to secrete granzymes to the extracellular space and cause cytotoxicity in cancer cells.[24] […] To test the utility of compound 9 to measure active GzmA in cell supernatants, we performed degranulation assays in human NK‐92 cells (e.g., a patient‐derived cell line that expresses higher levels of GzmA than healthy NK cells)[25] and also tested GzmA‐negative cells (e.g., HaCaT keratinocytes, Figure S8). NK‐92 cells were stimulated with […] and ionomycin (Figure 5).[26] Cell supernatants were collected and incubated with compound 9 for 1 h, followed by spectroscopic measurements. […] Previous reports indicate that granzyme activity can be detected inside NK‐92 cells[[11b]] and that granzymes can be found within activated immune cells due to intracellular granular leakage,[27] even though granzyme activity is known to be reduced in acidic granules. To study this observation, we performed Z‐stack live‐cell confocal microscopy in NK‐92 cells after incubation with compound 9.
(§1) 5.0) prior to the enzyme assays.
(§2) All the tubes were incubated
(§3) NK- 92 cell inhibition and imaging. […]
(§4) Microsystems) and qualitatively analysed using Fiji.

Another data set deals with NK-92 cells. Kind of data set: Live-cell confocal microscopy of NK-92 cells. The class given is cell-based, human. The note with it: 3,4-dichloroisocoumarin 5 μM, 2 h prior to labeling with compound 9 (5 μM, 1 h). How it is done:
Figure S9. Brightfield and fluorescence confocal microscopy merged images of live NK-92 cells upon incubation with compound 9. Representative microscopy images from 3 independent experiments of live NK-92 cells upon incubation with […]
dichloroisocoumarin (5 µM) was used as a GzmA inhibitor for 2 h prior to labeling.
as §1, §2, §3, §4

Data set [2] can be described thus: Chemical stability in aqueous buffers by HPLC-MS (no enzyme). The class given is physicochemical. Conditions: for chemical stability at other pH (in words): basic and acid media. As to the method:
Figure 2 Solid‐phase peptide synthesis (SPPS) of the sequence Ac‐IGNR‐OH (compound 1) and corresponding analogues containing spacers with different connectivities. The synthesis of compounds 1–4 is described in the Supporting Information. […] TEXT PRINTED IN THE PICTURE: 2 (ester): pH 4: < 5%; pH 7: < 5%; pH 10: < 5% | 3 (thioester): pH 4: 70%; pH 7: < 5%; pH 10: < 5% | 4 (amide): pH 4: > 95%; pH 7: > 95%; pH 10: > 95%
First, we synthesized a large batch (>400 mg) of Ac‐IGNR‐OH using standard protocols for the solid‐phase synthesis of fluorescent peptides[20] in polystyrene resin derivatized with a 2‐chlorotritylchloride linker (PS‐CTC). Next, we coupled the tetrapeptide Ac‐IGNR‐OH (compound 1, Figure 2) to different aryl groups to generate the isosteric ester, thioester and amide analogues (compounds 2, 3 and 4 respectively, Figure 2). After isolation of all compounds by semi‐preparative HPLC with purities >95 %, we analyzed their chemical stability in aqueous media in the absence of hGzmA. […] We also tested their chemical integrity at different pH values because GzmA can be stored in slightly acidic cytotoxic granules inside CTLs.[21]

A short description of data set [3]: Emission wavelength / spectral properties. The class given is physicochemical. Conditions: comparison of compound 9 and Z-FR-AMC.
Where [4] appears, read: Tris buffer (pH 7.4), absence of hGzmA, HPLC-MS.
Setting [5] is: pH 4, aqueous buffer, 2 h at 37 °C, HPLC-MS.
[6] abbreviates: pH 7, aqueous buffer, 2 h at 37 °C, HPLC-MS.
Where [7] appears, read: pH 10, aqueous buffer, 2 h at 37 °C, HPLC-MS.

With `O=c1oc(Cl)c(Cl)c2ccccc12` [3,4‐dichloroisocoumarin], the “decrease of the fluorescence signal” value at hGzmA is given as more than 90%. Besides, the “effect of inhibitor on supernatant fluorescence (in words)” value in data set [1] was “blocked”. Besides, the “effect of inhibitor on intracellular fluorescence (in words)” value in the data set with NK-92 cells is on record as “reduced”.
Consider `CC[C@H](C)[C@H](NC(C)=O)C(=O)NCC(=O)N[C@@H](CC(N)=O)C(=O)N[C@@H](CCCNC(=N)N)C(=O)Oc1ccc(C)cc1` [compound 2] (Ac-IGNR-X2), for which the “chemical stability (in words)” value in data set [2] (setting [4]) was “completely hydrolyzed”. Besides, the “stability (% by HPLC-MS)” value in data set [2] (setting [5]), in data set [2] (setting [6]) and in data set [2] (setting [7]) was less than 5% throughout.
`CC[C@H](C)[C@H](NC(C)=O)C(=O)NCC(=O)N[C@@H](CC(N)=O)C(=O)N[C@@H](CCCNC(=N)N)C(=O)Sc1ccc(C)cc1` [compound 3] (Ac-IGNR-X1): the “chemical stability (in words)” value in data set [2] (setting [4]) is reported as “completely hydrolyzed”. Also, in data set [2] (HPLC-MS, 2 h at 37 °C), the “chemical stability at other pH (in words)” value is on record as “more stable than the carboxylic ester analogue 2 at acidic pH”. For the same compound, the fraction remaining at 2 h in data set [2] (setting [5]) came to 70%. In addition, the “stability (% by HPLC-MS)” value in data set [2] (setting [6]) and in data set [2] (setting [7]) was less than 5% throughout.
In turn, `CC[C@H](C)[C@H](NC(C)=O)C(=O)NCC(=O)N[C@@H](CC(N)=O)C(=O)N[C@@H](CCCNC(=N)N)C(=O)Nc1ccc(C)cc1` [compound 4] (Ac-IGNR-{NH(4-Me-phenyl)}) gave a purity after incubation in data set [2] (Tris buffer (pH 7.4), absence of hGzmA) of more than 95%. In addition, the “chemical stability (in words)” value in data set [2] (setting [4]) was “fully stable”. Besides, the “chemical stability at other pH (in words)” value in data set [2] (HPLC-MS, 2 h at 37 °C) is “stable in basic and acid media”. The “stability (% by HPLC-MS)” value in data set [2] (setting [5]), in data set [2] (setting [6]) and in data set [2] (setting [7]) was more than 95% throughout.
In data set [3], Cbz-Phe-Arg-{AMC} displayed an emission wavelength of 445 nm.

Source of the values: article PMC10108010, “Fluorogenic Granzyme A Substrates Enable Real‐Time Imaging of Adaptive Immune Cell Activity” (Angewandte Chemie (International Ed. in English), 2023).
